Patent US6340575B1, “Methods and compositions for treating abnormal cell growth related to unwanted guanine nucleotide exchange factor activity” (Onyx Pharmaceuticals, Inc., priority 1997, dated 2002)

T1: Type II Rac-GEF (Homo sapiens, UniProt Q8N5V2)
T1 construct: made in house; host or cells: E. coli BL21(DE3)pLysS, plasmid pET21a
T1 sequence (Q8N5V2 264-710 limits assumed): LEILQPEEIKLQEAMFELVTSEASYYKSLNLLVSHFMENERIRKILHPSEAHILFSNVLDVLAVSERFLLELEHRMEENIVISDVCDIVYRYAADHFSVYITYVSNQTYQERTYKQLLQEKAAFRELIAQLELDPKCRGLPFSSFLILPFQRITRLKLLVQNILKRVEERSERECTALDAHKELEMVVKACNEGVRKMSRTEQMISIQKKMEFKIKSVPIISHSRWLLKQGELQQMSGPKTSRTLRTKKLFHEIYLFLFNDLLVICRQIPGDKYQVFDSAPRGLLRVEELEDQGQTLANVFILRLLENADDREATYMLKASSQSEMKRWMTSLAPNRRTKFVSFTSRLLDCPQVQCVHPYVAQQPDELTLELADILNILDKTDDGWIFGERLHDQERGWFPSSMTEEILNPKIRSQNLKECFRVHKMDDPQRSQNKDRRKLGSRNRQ

B1: Rac GEF: Glu-epitope tagged Type I and Type II Rac-GEF proteins expressed in E. coli, partially pure (protein)
chain: MEYMPMEIRHDLEILQPEEIKLQEAMFELVTSEASYYKSLNLLVSHFMENERIRKILHPSEAHILFSNVLDVLAVSERFLLELEHRMEENIVISDVCDIVYRYAADHFSVYITYVSNQTYQERTYKQLLQEKAAFRELIAQLELDPKCRGLPFSSFLILPFQRITRLKLLVQNILKRVEERSERECTALDAHKELEMVVKACNEGVRKMSRTEQMISIQKKMEFKIKSVPIISHSRWLLKQGELQQMSGPKTSRTLRTKKLFHEIYLFLFNDLLVICRQIPGDKYQVFDSAPRGLLRVEELEDQGQTLANVFILRLLENADDREATYMLKASSQSEMKRWMTSLAPNRRTKFVSFTSRLLDCPQVQCVHPYVAQQPDELTLELADILNILDKTDDGWIFGERLHDQERGWFPSSMTEEILNPKIRSQNLKECFRVHKMDDPQRSQNKDRRKLGSRNRQ

How the values were obtained:
[1] = molecular target: T2, 85 kD portion of human Tiam-1 protein (Homo sapiens, UniProt Q13009); assay: Tiam-1 Rac GEF activity assay (32P-GTP filter binding), 85 kD Tiam-1; format: biochemical; details: 85 kD Tiam-1 truncation; room temperature, 10 minutes
T2 construct: This prote in contained an intact PDZ domain, Dbl-homology (DH) domain and adjacent pleckstrin homology (PH) domain; made in house; host or cells: baculovirus-infected Sf9 (S. frugiperda) cells
Method: (§1) The GEF activity of the various Tiam-1 constructs described above was determined in the presence and absence of certain compounds. The following assay was utilized. Reactions were conducted at room temperature in Buffer A (20 mM Hepes pH7.3, 50 mM NaCl, 2 mM DTT, 2 mM MgCl2). All proteins and compounds were diluted to 4× their final concentrations in Buffer A (GTPases were diluted in Buffer A containing 1 μM GDP). To dilute Ascorbyl Stearate, Ascorbyl Palmitate, and Stearic Acid, 25 mM ETOH solutions were slowly added to Buffer A while vortexing vigorously. Other lipids were resuspended in aqueous solution with vortexing and bath sonication and then diluted into Buffer A. Reactions were prepared and at time 0, λ-^32P-GTP (DuPont NEN #NEG006H) was added to 4.5 nM, and after 10 minutes reactions were stopped by filtering onto nitrocellulose filters (Millipore #HAWP02500) and immediately washed with wash buffer (25 mM Tris 7.5, 100 mM NaCl, 30 mM MgCl2). Bound λ-^32P-GTP was measured, using standard techniques.
The 85 kD portion of human Tiam-1 protein was produced in insect cells and purified by affinity chromatography, as described above. This prote in contained an intact PDZ domain, Dbl-homology (DH) domain and adjacent pleckstrin homology (PH) domain (FIG. 3). […] Several other lipids were tested to determine the specificity of activation. […] As a control, experiments were run to determine if IP3, IP2, ascorbic acid, stearic acid and ascorbic acid with stearic acid were sufficient to activate the GEF activity of Tiam-1.

[2] = molecular target: T3, 135 kD Tiam-1 truncation (Homo sapiens, UniProt Q13009); assay: Tiam-1 Rac GEF activity assay (32P-GTP filter binding), 135 kD Tiam-1; format: biochemical
T3 construct: made in house; host or cells: baculovirus-infected Sf9 (S. frugiperda) cells
Method: as §1
(§2) It has been previously reported that Tiam-1 has GEE activity in the absence absence of lipids. See, Michiels, F., Habets, G. G., Stam, J. C., van der Kammen, R. A., and Collard, J. G. (1995) Nature 375,338-340. Those studies used a miouse version containing additional upstream sequences, including the N-terminal PH domain and the coiled-coil region. […]

[3] = molecular target: T1, Type II Rac-GEF; assay: Guanine nucleotide exchange activity of Type II Rac-GEF with added PH domain ligand; format: biochemical; details: Type II form containing the Dbl insert region
Method: (§3) Two Rac-GEFs were tested for guanine nucleotide activity. Firstly, a Glu-epitope tag (MEYMPMEIRHD) (SEQ ID NO:32) was engineered onto the carboxy-terminal 423 amino acids of the Rac GEF encoded by EST No. 167059 by introducing the oligos 5′-[…]-3′ SEQ ID NO.5 and the complementary 5′-[…]-3′ SEQ ID NO.6 into the XhoI/EcoRI sites of the clone. The protein encoded by this construct is referred to as Type I Rac-GEF.
(§4) Next, the sequence encoding the insertion in the Dbl homology region, as described in Example 1, was engineered into the open reading frame in the expression plasmid pET21a (Novagen). The protein encoded by this construct is referred to as Type II Rac-GEF. The resulting expression plasmids were introduced into E. coli strain BL21(DE3)pLysS (Novagen), and the epitope tagged protein expression was induced with IPTG. The expressed proteins were purified using a resin with the antibody to the Glu-epitope covalently attached. The resulting proteins were partially pure and were assayed for exchange activity on Rac1, RhoA and Cdc42. See, Hart, in U.S. Ser. No. 60/029,979, filed Nov. 6, 1996 now abandoned.

[4] = tested on: ΔPH versions of Tiam-1; assay: Tiam-1 Rac GEF activity assay, truncations with deleted C-terminal PH domain; format: biochemical, human; details: truncations lacking half of the C-terminal PH domain and the rest of the C-terminus
Method: ΔPH versions of Tiam-1: The oligonucleotides 5′-[…]-3′ SEQ ID NO.24 and 5′-[…]-3′ SEQ ID NO.25 were used as linkers to recircularize Eco47III (4487) and XmaI-digested pAcC4-based expression vectors containing the 135 kD, 106 kD, 85 kD, and 66 kD versions of Tiam-1.
as §1, with “techniques. […]” for “techniques.”

[5] = tested on: Other truncations of Tiam-1, all containing the DH and PH domains; assay: Tiam-1 Rac GEF activity assay, other truncations containing the DH and PH domains; format: biochemical, human; details: other Tiam-1 truncations containing DH and PH domains
Method: as §1, §2

[6] = tested on: Type I Rac-GEF; assay: Guanine nucleotide exchange activity of Type I Rac-GEF with added PH domain ligand; format: biochemical, human; details: Type I form lacking the Dbl insert region
Method: as §3, §4

[7] = tested on: Rac1; assay: Exchange activity of Rac GEF on Rac1; format: biochemical; details: partially pure Glu-tagged protein
Method: as §3, §4

[8] = tested on: Cdc42; assay: Exchange activity of Rac GEF on Cdc42; format: biochemical; details: partially pure Glu-tagged protein
Method: as §3, §4

[9] = tested on: RhoA; assay: Exchange activity of Rac GEF on RhoA; format: biochemical; details: partially pure Glu-tagged protein
Method: as §3, §4

T2 sequence (Q13009 837-1591 limits assumed): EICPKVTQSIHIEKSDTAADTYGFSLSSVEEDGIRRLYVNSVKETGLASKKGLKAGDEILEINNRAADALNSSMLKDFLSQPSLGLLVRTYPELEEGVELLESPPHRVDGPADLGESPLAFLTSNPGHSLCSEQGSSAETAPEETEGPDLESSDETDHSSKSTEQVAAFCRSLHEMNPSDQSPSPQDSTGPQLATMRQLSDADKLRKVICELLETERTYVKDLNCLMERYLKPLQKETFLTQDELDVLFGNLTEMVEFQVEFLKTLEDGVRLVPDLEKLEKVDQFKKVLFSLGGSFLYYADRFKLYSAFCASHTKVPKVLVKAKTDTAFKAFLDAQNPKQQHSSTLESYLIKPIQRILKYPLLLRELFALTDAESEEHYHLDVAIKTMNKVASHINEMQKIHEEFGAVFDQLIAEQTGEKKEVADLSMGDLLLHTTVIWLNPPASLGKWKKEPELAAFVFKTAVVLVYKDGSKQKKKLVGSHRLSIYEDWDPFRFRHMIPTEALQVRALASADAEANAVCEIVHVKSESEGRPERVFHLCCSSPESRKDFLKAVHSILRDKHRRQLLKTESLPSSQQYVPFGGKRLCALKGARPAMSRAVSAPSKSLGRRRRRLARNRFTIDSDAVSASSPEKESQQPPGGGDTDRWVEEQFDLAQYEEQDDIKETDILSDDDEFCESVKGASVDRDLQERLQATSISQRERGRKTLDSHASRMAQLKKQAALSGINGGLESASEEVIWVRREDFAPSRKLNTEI
T3 sequence (Q13009 402-1591 limits assumed): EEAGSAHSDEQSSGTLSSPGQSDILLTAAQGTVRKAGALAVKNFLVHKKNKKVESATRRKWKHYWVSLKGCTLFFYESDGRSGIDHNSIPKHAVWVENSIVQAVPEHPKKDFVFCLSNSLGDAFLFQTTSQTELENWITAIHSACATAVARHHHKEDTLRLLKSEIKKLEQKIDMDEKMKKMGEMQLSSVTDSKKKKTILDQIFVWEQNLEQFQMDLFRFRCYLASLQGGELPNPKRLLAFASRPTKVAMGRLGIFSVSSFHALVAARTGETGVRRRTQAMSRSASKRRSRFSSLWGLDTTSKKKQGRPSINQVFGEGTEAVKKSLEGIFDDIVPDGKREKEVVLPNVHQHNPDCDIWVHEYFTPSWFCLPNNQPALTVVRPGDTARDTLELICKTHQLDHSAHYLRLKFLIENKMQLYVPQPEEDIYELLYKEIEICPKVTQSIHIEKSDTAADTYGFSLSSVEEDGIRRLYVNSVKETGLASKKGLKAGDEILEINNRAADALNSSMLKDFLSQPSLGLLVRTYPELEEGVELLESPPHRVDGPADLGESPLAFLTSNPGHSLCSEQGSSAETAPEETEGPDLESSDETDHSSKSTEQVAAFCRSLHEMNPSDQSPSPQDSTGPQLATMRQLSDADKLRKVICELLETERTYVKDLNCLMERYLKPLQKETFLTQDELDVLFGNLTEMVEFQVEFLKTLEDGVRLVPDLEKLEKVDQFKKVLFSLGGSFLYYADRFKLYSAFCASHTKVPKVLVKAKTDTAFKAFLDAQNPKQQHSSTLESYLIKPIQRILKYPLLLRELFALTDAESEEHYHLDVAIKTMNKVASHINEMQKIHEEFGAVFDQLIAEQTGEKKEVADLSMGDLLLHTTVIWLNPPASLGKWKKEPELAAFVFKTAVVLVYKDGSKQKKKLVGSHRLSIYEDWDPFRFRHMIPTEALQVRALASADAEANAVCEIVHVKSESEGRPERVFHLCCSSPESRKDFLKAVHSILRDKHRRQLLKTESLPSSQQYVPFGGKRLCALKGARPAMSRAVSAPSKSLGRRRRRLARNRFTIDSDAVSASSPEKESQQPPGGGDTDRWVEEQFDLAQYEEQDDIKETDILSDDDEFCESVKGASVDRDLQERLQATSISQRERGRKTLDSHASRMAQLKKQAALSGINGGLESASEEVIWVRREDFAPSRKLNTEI

Molecule | stimulation of Tiam-1 GEF activity (nucleotide exchange on Rac 1) [1] | also measured
CCCCCCCCCCCCCCCC(=O)OC[C@H](O)[C@H]1OC(=O)C(O)=C1O [Ascorbyl palmitate] | significantly enhanced | 
O[C@@H](CS)[C@@H](O)CS [DTT] | not to significantly stimulate | 
O=P(O)(O)O[C@@H]1[C@H](O)[C@H](O)[C@@H](OP(=O)(O)O)[C@H](OP(=O)(O)O)[C@H]1O [IP3] | incapable of stimulating GEF activity | 
O=C(O)CCP(CCC(=O)O)CCC(=O)O [TCEP, Tris (2-carboxyethyl)phosphine] | not to significantly stimulate | 
O=C1O[C@H]([C@@H](O)CO)C(O)=C1O [ascorbic acid] | incapable of stimulating GEF activity | 
CCCCCCCCCCCCCCCCCC(=O)OC[C@H](O)[C@H]1OC(=O)C(O)=C1O [ascorbyl stearate] | stimulated the rate of Tiam-1-mediated nucleotide exchange | stimulation of Tiam-1 GEF activity towards Rac [2]: greatly stimulated; effect of addition on exchange activity of Type II Rac-GEF [3]: strongly stimulated; activation of Tiam-1 GEF activity [4]: not activated; stimulation of GEF activity on Rac 1 [5]: stimulated GEF activity; effect of addition on exchange activity of Type I Rac-GEF [6]: unaffected
CCCCCCCCO[C@@H]1O[C@H](CO)[C@@H](O)[C@H](O)[C@H]1O [nOG] | not to significantly stimulate | 
CCCCCCCCCCCCCCCCCC(=O)O [stearic acid] | incapable of stimulating GEF activity | 
NP40 | not to significantly stimulate | 
TRITON X-100 | not to significantly stimulate | 
phosphatidyiholine | little or no effect | 
phosphatidylglycerol | little or no effect | 
phosphatidylinositol | little or no effect | 
phosphatidylinositol-3,4,5-trisphosphate | weak effects | 
phosphatidylinositol-4,5-bisphosphate | significantly enhanced | 
phosphatidylinositol-4-phosphate | significantly enhanced | 
phosphatidylserine | weak effects | 
B1 |  | exchange activity on Rac1 [7]: primarily selective; exchange activity on Cdc42 [8]: displays activity; exchange activity on RhoA [9]: displays activity
